Test results from publication PMC11946258, “Self-Assembly, Antimicrobial Properties and Biodegradability of Ester-Functionalized Choline-Based Surface-Active Ionic Liquids” (Molecules, 2025).

Assays:
MRSA biofilms [1] = assay type: cell-based, methicillin-resistant Staphylococcus aureus; conditions: MRSA biofilm, MTT
Procedure: The biocidal activity of the ester-functionalized choline-based ILs on bacterial and fungal cells in biofilms was assessed by MTT cell viability assays. CnECholBr were evaluated for their potential to kill cells in pre-established biofilms of MRSA and C. albicans, two clinically relevant pathogens. Pre-formed biofilms on 48-wells plates were treated with increasing concentrations of the ester-functionalized choline-based ILs and the cell viability of the sessile cells was quantified by the MTT method. The results obtained for MRSA and C. albicans biofilms are shown in Figure 6a and Figure 6b, respectively.
(§1) Antibiofilm activity was assessed against biofilm-forming strains of methicillin-resistant Staphylococcus aureus (MRSA) ATCC 43300 and Candida albicans ATCC 90028. The biofilm inhibition and eradication capacities of ILs were evaluated against adherent bacterial biofilms grown in 96-well microtiter plates. Bacteria were grown on Tryptic soy agar at 37 °C for 24 h and the fungi on Sabouraud agar at 30 °C for 24 h. Bacteria were suspended in lysogeny broth containing glucose (1%) at 1.5 × 10^8 CFU/mL and yeasts were suspended in RPMI medium at 1.5 × 10^7 CFU/mL.
For mature biofilm formation, 200 μL of the bacterial or fungal suspension was added to each well in a 48-well microplate, and incubated for 24 h at 37 °C for bacteria and 30 °C for yeast. The wells were then washed three times with PBS and 200 µL of each test solution with different concentrations of surfactants prepared in MHB (for bacteria) or RPMI medium (for yeasts) was added to each well containing the preformed biofilm. The plates were incubated for 24 h at 30 °C. The medium was removed and the wells were then washed twice with PBS. MTT solution (200 μL) was added to each well and the plate was incubated for 4 h. The MTT was then removed and 200 μL of DMSO was added to solubilize […]. The OD value was recorded at 540 nm. Controls were performed with non-ionic liquids. Each assay was run four times and the results were averaged.

MRSA biofilms [2] = assay: MRSA mature biofilm eradication (crystal violet); assay type: cell-based, methicillin-resistant Staphylococcus aureus; conditions: CV staining, up to the highest tested concentration of 256 µg/mL
Procedure: The capacity of the ester-functionalised cholinium-based ILs to eradicate established MRSA biofilms was evaluated through the performance of eradication assays on microtiter plates. CV staining was applied to measure biofilm biomass.
as §1
To evaluate the effect of ionic liquids on mature biofilms, we employed a modified microtiter plate assay. We first generated mature biofilms by incubating 200 μL of diluted bacterial suspension in each well of a 96-well plate for 24 h at 37 °C. After gently washing the biofilms with PBS, we added 200 μL of ionic liquid solution at various concentrations (4–256 μg/mL, using two-fold serial dilutions) to each well and incubated for an additional 24 h at 37 °C. Following treatment, we fixed the biofilms with 150 μL methanol for 10 min. The subsequent crystal violet (CV) staining and quantification steps were performed as described in the previous biofilm formation assay (Section 3.6.1), allowing us to assess the impact of ionic liquids on established biofilms.

Candida parasilopsis = assay: Antifungal MIC broth microdilution; assay type: cell-based; conditions: Candida parapsilosis ATCC 22019, RPMI 1640, 24 h, 30 °C
Procedure: (§2) The antimicrobial activity of cholinium-based ILs with an ester group in the alkyl chain was evaluated against a range of representative bacteria and fungi.
(§3) The antifungal activity was evaluated against the following yeasts: Candida albicans ATCC 90028, Candida tropicalis ATCC 7349, Candida parapsilosis ATCC 22019, Candida glabrata ATCC 66032. Frozen yeast stocks were inoculated into Sabourauds’s agar (SBA) and culture plates and incubated at 35 °C for 24 h. Three to four colonies of each strain were dispersed in sterile medium, Roswell Park Memorial Institute medium (RPMI 1640 medium), to obtain dispersions with a turbidity equivalent to 0.5 on the MacFarland scale (McFarland DEN-1B Grant-bio model densitometer). Minimum fungicidal concentrations (MFC) values—the lowest concentration of an antimicrobial agent that prevents the establishment of visible microbial growth after 24 h at 30 °C—were used to determine in vitro antifungal activity. MFCs were determined using a broth microdilution assay. Serial dilutions of each IL, ranging from 512 to 2 µg/mL, were dissolved in RPMI 1640 medium and dispensed (100 µL) into the appropriate wells of a 96-well polystyrene microtiter plate. The nutrient broth starter culture of each yeast strain (100 μL) was added to achieve a final inoculum of approximately 7.5 × 10^5 CFU per mL for yeast. Nutrient broth medium without the compound was used as a growth control. The development of turbidity in an inoculated medium is a function of growth and reflects an increase in both mass and cell number. To confirm this observation, 20 μL of resazurin at 0.015% w/v was added to each well and allowed to react for approximately 2 h at 30 °C. After the incubation period, the indicator of microbial growth, i.e., a change from blue to pink, confirmed the MIC value.

Candida tropicalis = assay: Antifungal MIC broth microdilution; assay type: cell-based; conditions: ATCC7349; Candida tropicalis ATCC 7349, RPMI 1640, 24 h, 30 °C
Procedure: as §2, §3

Candida glabrata = assay: Antifungal MIC broth microdilution; assay type: cell-based; conditions: Nakaseomyces glabratus, ATCC66032; Candida glabrata ATCC 66032, RPMI 1640, 24 h, 30 °C
Procedure: as §2, §3

Candida albicans = assay: Antifungal MIC broth microdilution; assay type: cell-based; conditions: ATCC90028; Candida albicans ATCC 90028, RPMI 1640, 24 h, 30 °C
Procedure: as §2, §3

MRSA = assay: MIC broth microdilution; assay type: cell-based, methicillin-resistant Staphylococcus aureus; conditions: Staphylococcus aureus, ATCC 43300 / MRSA; MRSA ATCC 43300, 24 h, 37 °C
Procedure: as §2
Antibacterial assays were performed against the following microorganisms: Bacillus subtilis ATCC 6633, Staphylococcus epidermidis ATCC 12228, Staphylococcus aureus ATCC 29213, Micrococcus luteus ATCC10240, Listeria monocytogenes ATCC 15313, methicillin-resistant Staphylococcus aureus ATCC 43300, Escherichia coli ATCC 8739, Acinetobacter baumannii ATCC 19606, Klebsiella aerogenes ATCC 13048, Pseudomonas aeruginosa 9027, and Salmonella enterica ATCC14208. The antibacterial activity was assessed in vitro using the minimum inhibitory concentration (MIC) method. MIC is defined as the lowest concentration of an antimicrobial agent that prevents visible bacterial growth after 24 h of incubation at 37 °C. The ionic liquids were dissolved in Mueller–Hinton broth (MBH) at concentrations ranging from 1 to 256 μg/mL. The broth was added (200 μL) to appropriate wells of a 96-well polystyrene microtitre plate. Then, 10 μL of a nutrient broth starter culture of each bacterial strain was added to achieve final inocula of approximately […] colony forming units (CFU)/mL. A growth control using nutrient broth medium without the ionic liquid was included. The plates were incubated 37 °C for 24 h. Bacterial growth was initially observed visually, with increased turbidity indicating cell growth. […] A color change of resazurine from blue to pink indicated bacterial metabolic activity. All the experiments were performed in triplicate to ensure reproducibility.

| SMILES | reduction in cell viability (MRSA biofilms [1]; at 32 µg/mL) [%] | biofilm biomass removal (MRSA biofilms [2]) | MIC (Candida parasilopsis) [mg/L] | MIC (Candida tropicalis) [mg/L] | MIC (Candida glabrata) [mg/L] | MIC (Candida albicans) [mg/L] | MIC (MRSA) [mg/L] | inhibition of cell viability (MRSA biofilms [1]; concentrations ≥ 128 µg/mL) [%] | cell viability (MRSA biofilms [1]; plateau at and above 128 µg/mL) |
| --- | --- | --- | --- | --- | --- | --- | --- | --- | --- |
| CCCCCCCCCCOC(=O)C[N+](C)(C)CCO [C10ECholBr] | 50 | less than 20% | > 256 | > 256 | > 256 | > 256 | > 256 |  |  |
| CCCCCCCCCCCCOC(=O)C[N+](C)(C)CCO [C12ECholBr] |  | ≤ 60% | > 256 | > 256 | 32 | 64 | 64 | > 95 |  |
| CCCCCCCCCCCCCCOC(=O)C[N+](C)(C)CCO.[Br-] [C14ECholBr, N-(2-hydroxyethyl)-N,N-dimethyl-2-oxo-2-(tetradecyloxy)ethan-1-aminium bromide] |  | ≤ 60% | > 256 | > 256 | > 256 | > 256 | > 256 |  | around 30% |
